Data from patent publication US8945847B2, “Methods and kits for ascertaining biosafety of an agent” (Yissum Research Development Company of the Hebrew …, priority 2010, dated 2015).

Legend:
[1] = tested on: HiPSC EBs (hTERT-BJ1 derived clone #28); test: DNA microarray gene expression profiling of RA-treated HiPSC embryoid bodies; format: cell-based, human; conditions: RA 1 μM, seven days
Method: Thalidomide was tested twice and caffeine once.

[2] = tested on: human embryoid bodies (H9 HESCs); test: DNA microarray global gene expression profiling of treated HESC embryoid bodies; conditions: for genes whose expression was significantly changed (over two-fold) relative to untreated controls: EBs treated seven days
Method: Differentiation in-vitro into embryoid bodies (EBs) was performed by trypsinizing confluent cultures using 0.25% trypsin-A in DPBS solution (Biological industries, Beit-Haemek, Israel) for 15 seconds to dissociate the colonies into large clumps. Clumps were then transferred 1:1 into non-stick petri dishes and grown in regular HESC medium but without exogenous FGF2.
Drug treatments: Embryoid body media were supplemented with the various treatment compounds on the first day and changed on alternate days. […] Thalidomide (Sigma, T144) was dissolved in DMSO at 1000× stock solution and used at a final concentration of 10 μg/ml. All-trans-Retinoic acid (Sigma, R2625) was dissolved in DMSO at 100,000× stock solution and used at a final concentration of 1 μM.
Microarray data analysis: Following seven days in culture, embryoid bodies were harvested and RNA was extracted using RBC Bioscience (Taipei, Taiwan) total RNA extraction minikit (YRB50) according to the manufacturer's protocol. Hybridization to GeneChip Human Gene 1.0 ST expression arrays, washing and scanning were performed according to the manufacturer's protocol (Affymetrix). Arrays were analyzed using RMA probeset condensation algorithm (Expression Console, Affymetrix). […] Tissue specific genes were identified by comparing the expression of each of the five most relevant tissues to the mean expression of all other tissues (testis, brain, heart, spleen, skeletal muscle, kidney, liver, and breast). The top 200 genes by fold change for every tissue were regarded to be tissue specific genes.
Genes were considered differentially expressed when changed over two-fold. […] Significance was calculated separately for each test using a Chi-Square independence test and corrected for multiple testing (Bonferroni). […] Functional classification and significance were performed using the DAVID online functional annotation tool (worldwidewebdotdaviddotabccdotncifcrfdotgov/) using default settings, with a minimum p-value of 0.0001. General annotations with over 2000 members were removed from the analysis.

[3] = tested on: AFP, SOX17, HOXA1, NCAM1 in EBs; test: Immunofluorescent labeling of treated EBs; format: cell-based, human
Method: Immunofluorescent labeling: EBs were treated for seven days with either 1.5% ethanol or 1 μM all-trans-retinoic acid (see Drug Treatment section). EBs were let to settle and perfused with 10% sucrose-PBS solution for 30 minutes at 4° C., followed by an additional step in 30% sucrose-PBS solution for 1 hr at 4° C., with gentle shaking. EBs were then frozen in Tissue-Tek OCT solution (Sakura Finetek, USA) and cut into 9 μm sections. Samples were fixed following sectioning with PBS buffered 4% formaldehyde solution for 3 minutes. Blocking was performed with PBS, 2% BSA, 0.1% Triton x-100 solution for 1 hour at room temperature. Sections were incubated overnight at 4° C. with the following primary antibodies; AFP at 1:50 dilution (SC-8399, Santa-Cruz); HOXA1 at 1:50 dilution (SC-17146, Santa-Cruz); NCAM-1 at 1:150 dilution (AF2408, R&D Systems); SOX17 at 1:400 dilution (AF1924, R&D Systems). The sections were then incubated for 1 hour with the appropriate secondary antibody (Cy-3, Jackson ImmunoResearch) at room temperature. Finally, sections were counterstained with Hoechst (B2883, Sigma) for 10 minutes at room temperature.
Specifically, the protein levels of the fetal liver specific gene AFP and the earlier endodermal marker SOX17 were examined to assess the effects of ethanol treatment. The effect of RA treatment on neural differentiation was determined using antibodies for the HOXA1 protein and the neuronal specific protein NCAM1.

rodents = conditions: in vivo; cited from earlier work
human = conditions: in vivo; cited from earlier work
mouse = conditions: in vivo; cited from earlier work
[4] = lithium chloride 1 mM, caffeine 50 mg/ml, RA 1 μM, thalidomide 10 μg/ml
[5] = seven days, RA 1 μM, thalidomide 10 μg/ml
[6] = Gene Ontology functional annotation (DAVID), thalidomide 10 μg/ml

CC1=C(/C=C/C(C)=C/C=C/C(C)=C/C(=O)O)C(C)(C)CCC1 [RA, All-trans-Retinoic acid]
expression of anterior HoxA and HoxB genes [1]: specifically upregulated
genes whose expression was significantly changed (over two-fold) relative to untreated controls [2, 4]: several hundred
homeobox protein genes enriched in upregulated genes, fold above expected frequency ([2]; Gene Ontology functional annotation (DAVID), RA 1 μM): 14.1 fold
expression of anterior HoxA and HoxB genes ([2]; HESC EBs, RA 1 μM, seven days): specifically upregulated
HOXA1 overexpression at the mRNA level ([2]; RA 1 μM, seven days, relative to control): 13.6 fold
fold enrichment of heart specific genes in downregulated genes ([2]; seven days, RA 1 μM): 5.3
fold enrichment of brain specific genes in upregulated genes [2, 5]: 2.6 fold
NCAM1 abundance at the protein level ([3]; 1 μM all-trans-retinoic acid, seven days): increase
differentiation into the neuronal lineage (HOXA1 and NCAM1 labeling) ([3]; RA treatment): higher differentiation into the neuronal lineage

CC(=O)Oc1ccccc1C(=O)O [aspirin]
teratogenicity in rodents (rodents): teratogenic
teratogenicity in humans (human): not in humans

O=C1CCC(N2C(=O)c3ccccc3C2=O)C(=O)N1 (centres unmarked) [thalidomide, Thalidomide]
teratogenicity in the mouse (mouse): not identified prospectively as such
genes whose expression was significantly changed (over two-fold) relative to untreated controls [2, 4]: several hundred
downregulation of oxidative stress response genes, enrichment [2, 6]: 15.8 fold
nervous system development genes affected, enrichment [2, 6]: 2.5 fold
transforming growth factor beta genes affected, enrichment [2, 6]: 29.6 fold
upregulation of genes responsible for metabolism of xenobiotics, enrichment [2, 6]: 11.5 fold
fold enrichment of brain specific genes in upregulated genes [2, 5]: 12.5 fold
fold enrichment of liver specific genes in downregulated genes ([2]; seven days, thalidomide 10 μg/ml): 4.4 fold
teratogenicity in humans (human): strong human teratogen

CCO [ethanol, Ethanol]
enriched functional annotations for downregulated genes ([2]; DAVID functional annotation, ethanol): no significantly enriched functional annotations
genes whose expression was significantly changed (over two-fold) relative to untreated controls ([2]; 0.5% ethanol (v/v)): little or no effect
genes whose expression was significantly changed (over two-fold) relative to untreated controls ([2]; ethanol 1.5% and 2%, analyzed together): several hundred
liver protein genes, upregulated functional group enrichment ([2]; Gene Ontology functional annotation (DAVID), ethanol treated EBs): 9.3 fold
expression of later adult hepatic markers (albumin, alcohol dehydrogenase genes) ([2]; ethanol treated EBs): not upregulated
expression of early hepatic markers (AFP, transthyretin, apolipoprotein and fibrinogen genes) ([2]; high ethanol (1.5% and 2%)): specifically upregulated
AFP staining (protein level) ([3]; 1.5% ethanol, seven days): dramatic increase
SOX17 staining (protein level) ([3]; 1.5% ethanol, seven days): dramatic increase
AFP staining (protein level) ([3]; 1.5% ethanol, seven days, listed as Ethanol): elevation of AFP staining
